Source: ChEMBL document CHEMBL3352201, “P21-Activated Kinase 4 (PAK4) Inhibitors as Potential Cancer Therapy” (ACS Med Chem Lett, 2015)
pIC50: −log10 of the molar value.

What was measured:
[1] = target: Serine/threonine-protein kinase PAK 4 (Homo sapiens, UniProt O96013); assay: Inhibition of human recombinant PAK4 kinase domain assessed as phosphorylation of FRET peptide substrate at Ser/Thr20 by […] assay
[2] = target: Serine/threonine-protein kinase PAK 1 (Homo sapiens, UniProt Q13153); assay: Inhibition of human recombinant PAK1 kinase domain assessed as phosphorylation of FRET peptide substrate at Ser/Thr20 by […] assay
Sequence of Serine/threonine-protein kinase PAK 1 (Q13153 whole entry, the tested form may be a part): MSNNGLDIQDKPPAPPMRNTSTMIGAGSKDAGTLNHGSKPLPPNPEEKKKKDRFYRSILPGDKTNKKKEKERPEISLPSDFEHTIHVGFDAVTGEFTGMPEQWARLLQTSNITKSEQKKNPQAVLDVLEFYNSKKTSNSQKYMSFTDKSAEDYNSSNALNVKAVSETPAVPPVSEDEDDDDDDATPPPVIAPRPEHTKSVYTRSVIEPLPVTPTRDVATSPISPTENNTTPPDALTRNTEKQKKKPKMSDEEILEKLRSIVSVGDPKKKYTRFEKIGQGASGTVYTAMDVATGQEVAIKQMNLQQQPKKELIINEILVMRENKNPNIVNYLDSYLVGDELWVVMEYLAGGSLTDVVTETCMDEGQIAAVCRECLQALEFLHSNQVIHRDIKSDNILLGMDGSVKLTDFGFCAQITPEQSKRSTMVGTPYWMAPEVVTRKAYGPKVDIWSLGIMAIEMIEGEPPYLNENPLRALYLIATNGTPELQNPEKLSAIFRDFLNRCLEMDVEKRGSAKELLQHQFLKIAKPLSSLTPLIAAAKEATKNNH

Sequence of Serine/threonine-protein kinase PAK 4 (O96013 whole entry, the tested form may be a part): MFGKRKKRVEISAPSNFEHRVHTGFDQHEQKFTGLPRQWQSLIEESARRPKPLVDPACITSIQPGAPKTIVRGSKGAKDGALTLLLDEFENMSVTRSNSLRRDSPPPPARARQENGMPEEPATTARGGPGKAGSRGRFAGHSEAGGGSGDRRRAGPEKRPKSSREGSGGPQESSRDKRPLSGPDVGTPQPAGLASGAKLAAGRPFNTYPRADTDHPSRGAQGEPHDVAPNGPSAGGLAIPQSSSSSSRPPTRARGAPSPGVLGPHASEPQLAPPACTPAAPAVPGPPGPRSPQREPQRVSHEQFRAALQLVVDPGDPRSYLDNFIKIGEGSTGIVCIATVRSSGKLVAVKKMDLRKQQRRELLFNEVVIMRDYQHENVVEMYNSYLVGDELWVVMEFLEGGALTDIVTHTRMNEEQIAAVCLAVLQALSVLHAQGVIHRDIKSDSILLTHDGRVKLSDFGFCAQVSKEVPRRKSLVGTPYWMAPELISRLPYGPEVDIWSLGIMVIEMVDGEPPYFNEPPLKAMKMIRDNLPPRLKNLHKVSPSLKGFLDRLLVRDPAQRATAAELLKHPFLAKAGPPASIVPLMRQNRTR

| SMILES | pIC50 [1] | pIC50 [2] |
| --- | --- | --- |
| CCNc1nc2ccc(C#CC(C)(C)O)cc2n1-c1ncnc(N)n1 | 7.18 | 5.02 |
| CCNc1nc2ccc(C#C[C@@](C)(O)c3cc(C)on3)cc2n1-c1ncnc(N)n1 | 8.28 | < 5.35 |
| COCCNc1nc2ccc(C#CC3(O)CCCCC3)cc2n1-c1ccnc(N)n1 | 8.32 | – |
| CNc1nc2ccc(C#C[C@@](C)(O)c3cc(C)on3)cc2n1-c1ncnc(N)n1 | 7.45 | < 5.35 |
